Measurements as given in US8367830B2, “Methods for the identification of phosphatidylinositol kinase interacting molecules and for the purification of phosphatidylinositol kinase proteins” (Cellzome AG, priority 2009, dated 2013).

Tests used:
[1] = target: T1, PIK4Ca (Homo sapiens, UniProt P42356); assay: Kinobeads competition binding, immobilized CZC31207, HeLa/placenta lysate mix; parameters: endogenous in cells; settings: 10 μM free compound; mixed HeLa and placenta cell lysates
Description: (§1) To the first aliquot of cell lysate 10 μM of the free compound (CZC31207) was added and allowed to bind to proteins in the lysate. Then the affinity matrix with the immobilized compound (Example 1) was added to capture proteins that were not interacting with the previously added free compound. Beads were separated from the lysate and bead bound proteins were eluted in SDS sample buffer and subsequently separated by SDS-Polyacrylamide gel electrophoresis (FIG. 4). Suitable gel bands were cut out and subjected to in-gel proteolytic digestion with trypsin. The second lysate aliquot was processed identically, however no free compound was added (DMSO solvent control). Peptides originating from samples 1 and 2 were labeled with iTRAQ reagents (iTRAQ 115 and iTRAQ 117) and the combined samples were analyzed with a nano-flow liquid chromatography system coupled online to a tandem mass spectrometer (LC-MS/MS) experiment followed by iTRAQ reporter ion quantification in the MS/MS spectra (Ross et al., 2004. Mol. Cell. Proteomics 3(12):1154-1169). Further experimental protocols can be found in WO2006/134056 and a previous publication (Bantscheff et al., 2007. Nature Biotechnology 25, 1035-1044).
(§2) Cells were homogenized in a Potter S homogenizer in lysis buffer: 50 mM Tris-HCl, 0.8% NP40, 5% glycerol, 150 mM NaCl, 1.5 mM MgCl2, 25 mM NaF, 1 mM sodium vanadate, 1 mM DTT, pH 7.5. One complete EDTA-free tablet (protease inhibitor cocktail, Roche Diagnostics, 1 873 580) per 25 ml buffer was added. The material was dounced 20 times using a mechanized POTTER S, transferred to 50 ml falcon tubes, incubated for 30 minutes rotating at 4° C. and spun down for 10 minutes at 20,000×g at 4° C. (10,000 rpm in Sorvall SLA600, precooled). The supernatant was transferred to an ultracentrifuge (UZ)-polycarbonate tube (Beckmann, 355654) and spun for 1 hour at 145.000×g at 4° C. (40.000 rpm in Ti50.2, precooled). The supernatant was transferred again to a fresh 50 ml falcon tube, the protein concentration was determined by a Bradford assay (BioRad) and samples containing 50 mg of protein per aliquot were prepared. The samples were immediately used for experiments or frozen in liquid nitrogen and stored frozen at −80° C.
(§3) Sepharose-beads with the immobilized compound (100 μl beads per pull-down experiment) were equilibrated in lysis buffer and incubated with a cell lysate sample containing 50 mg of protein on an end-over-end shaker (Roto Shake Genie, Scientific Industries Inc.) for 2 hours at 4° C. Beads were collected, transferred to Mobicol-columns (MoBiTech 10055) and washed with 10 ml lysis buffer containing 0.4% NP40 detergent, followed by 5 ml lysis buffer containing 0.2% detergent. To elute bound proteins, 60 μl 2×SDS sample buffer was added to the column. […]

[2] = target: T2, DNAPK (Homo sapiens, UniProt P78527); assay: Kinobeads competition binding, immobilized CZC31207, Jurkat/Ramos lysate mix; parameters: endogenous in cells; settings: 10 μM free compound; mix of Jurkat and Ramos cell lysates
Description: (§4) To the first aliquot of cell lysate 10 μM of the free compound CZC31207 was added and allowed to bind to proteins in the lysate. Then the affinity matrix with the immobilized compound was added to capture proteins that were not interacting with the previously added free compound. Beads were separated from the lysate and bead bound proteins were eluted in SDS sample buffer and subsequently separated by SDS-Polyacrylamide gel electrophoresis (FIG. 5). Suitable gel bands were cut out and subjected to in-gel proteolytic digestion with trypsin. The second lysate aliquot was processed identically, however no free compound was added (DMSO solvent control). Peptides originating from samples 1 and 2 were labeled with iTRAQ reagents (iTRAQ 114 and iTRAQ 116) and the combined samples were analyzed with a nano-flow liquid chromatography system coupled online to a tandem mass spectrometer (LC-MS/MS) experiment followed by iTRAQ reporter ion quantification in the MS/MS spectra as described in Example 2.
(§5) Jurkat cells (ATCC number T1B-152) and Ramos cells (ATCC number CRL-1596) were either obtained from an external supplier (CIL SA, Mons, Belgium) or grown in one litre Spinner flasks (Integra Biosciences, #182101) in suspension in RPMI 1640 medium (Invitrogen, #21875-034) supplemented with 10% Fetal Bovine Serum (Invitrogen, #10270-106) at a density between 0.2×10^6 and 1.0×10^6 cells/ml. Cells were harvested by centrifugation, washed once with 1×PBS buffer (Invitrogen, #14190-094) and cell pellets were frozen in liquid nitrogen and subsequently stored at −80° C.
(§6) The identified kinases are shown in Table 5 including the percent competition values for the sample to which 10 μM free compound had been added. In total of 20 different kinases were identified and competed by different degrees.

[3] = target: T3, FRAP (Homo sapiens, UniProt P42345); assay: as above; parameters: endogenous in cells; settings: 10 μM free compound; mix of Jurkat and Ramos cell lysates
Description: as §4, §5, §6

[4] = target: T4, NEK2 (Homo sapiens, UniProt P51955); assay: as above; parameters: endogenous in cells; settings: 10 μM free compound; mix of Jurkat and Ramos cell lysates
Description: as §4, §5, §6

[5] = target: T5, PIK3Cb (Homo sapiens, UniProt P42338); assay: as above; parameters: endogenous in cells; settings: 10 μM free compound; mix of Jurkat and Ramos cell lysates
Description: as §4, §5, §6

[6] = target: T6, PIK3Cd (Homo sapiens, UniProt O00329); assay: as above; parameters: endogenous in cells; settings: 10 μM free compound; mix of Jurkat and Ramos cell lysates
Description: as §4, §5, §6

[7] = target: T7, PIK3Cg (Homo sapiens, UniProt P48736); assay: as above; parameters: endogenous in cells; settings: 10 μM free compound; mix of Jurkat and Ramos cell lysates
Description: as §4, §5, §6

[8] = target: T8, PIP5K2C (Homo sapiens, UniProt Q8TBX8); assay: as above; parameters: endogenous in cells; settings: 10 μM free compound; mix of Jurkat and Ramos cell lysates
Description: as §4, §5, §6

[9] = target: BCKDK (Homo sapiens, UniProt O14874); assay: as above; parameters: endogenous in cells; host or cells: mixed lysate of Jurkat and Ramos cells; settings: 10 μM free compound; mix of Jurkat and Ramos cell lysates
Description: as §4
as §5, with “Cells were harvested by centrifugation, washed once with 1×PBS buffer (Invitrogen, #14190-094) and cell pellets were frozen in liquid nitrogen and subsequently stored at −80° C.” left out

[10] = target: MAP3K1 (Homo sapiens, UniProt Q13233); assay: as above; parameters: endogenous in cells; host or cells: mixed lysate of Jurkat and Ramos cells; settings: 10 μM free compound; mix of Jurkat and Ramos cell lysates
Description: as §4
as §5, with “Cells were harvested by centrifugation, washed once with 1×PBS buffer (Invitrogen, #14190-094) and cell pellets were frozen in liquid nitrogen and subsequently stored at −80° C.” left out

[11] = target: T2, DNAPK; assay: Kinobeads competition binding, immobilized CZC31207, HeLa/placenta lysate mix; parameters: endogenous in cells; host or cells: mixed lysate of HeLa cells and placenta; settings: 10 μM free compound; mixed HeLa and placenta cell lysates
Description: as §1
as §2, with “(40.000 rpm in Ti50.2, precooled).” left out, “The samples were immediately used for experiments or frozen in liquid nitrogen and stored frozen at −80° C.” left out

[12] = target: T3, FRAP; assay: as above; parameters: endogenous in cells; host or cells: mixed lysate of HeLa cells and placenta; settings: 10 μM free compound; mixed HeLa and placenta cell lysates
Description: as §1
as §2, with “(40.000 rpm in Ti50.2, precooled).” left out, “The samples were immediately used for experiments or frozen in liquid nitrogen and stored frozen at −80° C.” left out

[13] = target: T6, PIK3Cd; assay: as above; parameters: endogenous in cells; host or cells: mixed lysate of HeLa cells and placenta; settings: 10 μM free compound; mixed HeLa and placenta cell lysates
Description: as §1
as §2, with “(40.000 rpm in Ti50.2, precooled).” left out, “The samples were immediately used for experiments or frozen in liquid nitrogen and stored frozen at −80° C.” left out

[14] = target: T4, NEK2; assay: as above; parameters: endogenous in cells; host or cells: mix of HeLa cell lysate and placenta lysate; settings: 10 μM free compound; mixed HeLa and placenta cell lysates
Description: as §1, §2, §3

[15] = target: T5, PIK3Cb; assay: as above; parameters: endogenous in cells; host or cells: mix of HeLa cell lysate and placenta lysate; settings: 10 μM free compound; mixed HeLa and placenta cell lysates
Description: as §1, §2, §3

[16] = target: T7, PIK3Cg; assay: as above; parameters: endogenous in cells; host or cells: mix of HeLa cell lysate and placenta lysate; settings: 10 μM free compound; mixed HeLa and placenta cell lysates
Description: as §1, §2, §3

[17] = target: T8, PIP5K2C; assay: as above; parameters: endogenous in cells; host or cells: mix of HeLa cell lysate and placenta lysate; settings: 10 μM free compound; mixed HeLa and placenta cell lysates
Description: as §1, §2, §3

[18] = target: CaMK2g (Homo sapiens, UniProt Q13555); assay: Kinobeads competition binding, immobilized CZC31207, Jurkat/Ramos lysate mix; parameters: capturing and identification of kinases from amix of Jurkat and Ramos cell lysates; endogenous in cells; host or cells: mix of Jurkat and Ramos cell lysates; settings: 10 μM free compound; mix of Jurkat and Ramos cell lysates
Description: as §4
as §5, with “Cells were harvested by centrifugation, washed once with 1×PBS buffer (Invitrogen, #14190-094) and cell pellets were frozen in liquid nitrogen and subsequently stored at −80° C.” left out

[19] = target: T1, PIK4Ca; assay: as above; parameters: capturing and identification of kinases from amix of Jurkat and Ramos cell lysates; endogenous in cells; host or cells: mix of Jurkat and Ramos cell lysates; settings: 10 μM free compound; mix of Jurkat and Ramos cell lysates
Description: as §4
as §5, with “Cells were harvested by centrifugation, washed once with 1×PBS buffer (Invitrogen, #14190-094) and cell pellets were frozen in liquid nitrogen and subsequently stored at −80° C.” left out

T6 sequence (O00329 whole entry): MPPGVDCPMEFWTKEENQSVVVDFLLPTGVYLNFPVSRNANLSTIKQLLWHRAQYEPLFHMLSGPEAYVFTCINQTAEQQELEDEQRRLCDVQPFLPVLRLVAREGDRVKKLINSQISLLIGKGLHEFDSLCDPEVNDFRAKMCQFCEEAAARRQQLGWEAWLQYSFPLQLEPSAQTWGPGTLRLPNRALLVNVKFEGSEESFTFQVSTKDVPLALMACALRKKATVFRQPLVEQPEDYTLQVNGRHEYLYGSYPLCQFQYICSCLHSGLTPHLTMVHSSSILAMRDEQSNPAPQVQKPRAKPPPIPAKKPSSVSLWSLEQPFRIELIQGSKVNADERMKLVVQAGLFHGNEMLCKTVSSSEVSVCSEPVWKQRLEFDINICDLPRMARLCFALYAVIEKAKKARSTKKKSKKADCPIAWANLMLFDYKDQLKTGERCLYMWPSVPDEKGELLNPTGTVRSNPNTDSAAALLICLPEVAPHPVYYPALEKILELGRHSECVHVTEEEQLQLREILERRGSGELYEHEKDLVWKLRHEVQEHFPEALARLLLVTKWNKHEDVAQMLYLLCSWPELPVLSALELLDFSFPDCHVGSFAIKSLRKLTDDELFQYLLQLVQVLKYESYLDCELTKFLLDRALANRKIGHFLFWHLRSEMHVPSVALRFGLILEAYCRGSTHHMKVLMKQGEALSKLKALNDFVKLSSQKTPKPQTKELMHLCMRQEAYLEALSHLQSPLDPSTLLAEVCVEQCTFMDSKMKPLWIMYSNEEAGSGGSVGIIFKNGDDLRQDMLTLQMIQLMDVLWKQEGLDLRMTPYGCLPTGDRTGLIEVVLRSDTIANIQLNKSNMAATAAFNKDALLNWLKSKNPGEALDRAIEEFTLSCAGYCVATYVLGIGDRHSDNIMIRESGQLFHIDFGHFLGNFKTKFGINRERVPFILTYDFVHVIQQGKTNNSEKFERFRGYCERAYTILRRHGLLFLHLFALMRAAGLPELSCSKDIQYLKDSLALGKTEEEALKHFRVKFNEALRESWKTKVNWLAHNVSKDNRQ
T6 sequence (P27986 whole entry partner): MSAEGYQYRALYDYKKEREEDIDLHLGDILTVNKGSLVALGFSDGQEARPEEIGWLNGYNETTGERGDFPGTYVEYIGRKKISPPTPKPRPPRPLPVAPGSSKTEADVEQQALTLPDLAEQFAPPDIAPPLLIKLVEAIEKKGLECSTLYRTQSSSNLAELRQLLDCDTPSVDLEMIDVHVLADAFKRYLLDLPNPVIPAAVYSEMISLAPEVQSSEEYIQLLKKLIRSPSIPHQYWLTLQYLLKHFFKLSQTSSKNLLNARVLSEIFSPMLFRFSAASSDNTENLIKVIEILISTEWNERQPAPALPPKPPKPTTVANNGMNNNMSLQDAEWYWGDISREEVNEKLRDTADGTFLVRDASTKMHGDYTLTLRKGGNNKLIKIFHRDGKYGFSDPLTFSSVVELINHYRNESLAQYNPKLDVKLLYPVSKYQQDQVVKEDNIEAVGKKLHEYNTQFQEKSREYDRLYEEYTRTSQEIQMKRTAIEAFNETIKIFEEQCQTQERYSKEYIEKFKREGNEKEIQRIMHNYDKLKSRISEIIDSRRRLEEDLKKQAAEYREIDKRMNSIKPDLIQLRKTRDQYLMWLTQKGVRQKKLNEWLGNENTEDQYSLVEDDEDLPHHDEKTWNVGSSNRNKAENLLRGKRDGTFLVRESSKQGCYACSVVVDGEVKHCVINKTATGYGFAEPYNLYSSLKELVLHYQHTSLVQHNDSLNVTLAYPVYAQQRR
T8 sequence (Q8TBX8 whole entry): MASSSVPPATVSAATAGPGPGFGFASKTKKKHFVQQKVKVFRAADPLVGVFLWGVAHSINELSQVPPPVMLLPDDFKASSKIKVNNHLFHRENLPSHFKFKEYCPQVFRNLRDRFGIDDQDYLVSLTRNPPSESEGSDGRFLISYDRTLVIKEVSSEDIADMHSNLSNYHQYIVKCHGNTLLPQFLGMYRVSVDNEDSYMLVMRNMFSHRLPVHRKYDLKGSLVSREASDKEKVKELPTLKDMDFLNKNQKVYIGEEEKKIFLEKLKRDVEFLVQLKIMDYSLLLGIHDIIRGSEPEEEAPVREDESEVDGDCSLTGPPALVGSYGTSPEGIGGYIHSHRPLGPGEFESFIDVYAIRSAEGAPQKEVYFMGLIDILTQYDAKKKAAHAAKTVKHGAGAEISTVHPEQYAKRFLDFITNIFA
T5 sequence (P42338 whole entry): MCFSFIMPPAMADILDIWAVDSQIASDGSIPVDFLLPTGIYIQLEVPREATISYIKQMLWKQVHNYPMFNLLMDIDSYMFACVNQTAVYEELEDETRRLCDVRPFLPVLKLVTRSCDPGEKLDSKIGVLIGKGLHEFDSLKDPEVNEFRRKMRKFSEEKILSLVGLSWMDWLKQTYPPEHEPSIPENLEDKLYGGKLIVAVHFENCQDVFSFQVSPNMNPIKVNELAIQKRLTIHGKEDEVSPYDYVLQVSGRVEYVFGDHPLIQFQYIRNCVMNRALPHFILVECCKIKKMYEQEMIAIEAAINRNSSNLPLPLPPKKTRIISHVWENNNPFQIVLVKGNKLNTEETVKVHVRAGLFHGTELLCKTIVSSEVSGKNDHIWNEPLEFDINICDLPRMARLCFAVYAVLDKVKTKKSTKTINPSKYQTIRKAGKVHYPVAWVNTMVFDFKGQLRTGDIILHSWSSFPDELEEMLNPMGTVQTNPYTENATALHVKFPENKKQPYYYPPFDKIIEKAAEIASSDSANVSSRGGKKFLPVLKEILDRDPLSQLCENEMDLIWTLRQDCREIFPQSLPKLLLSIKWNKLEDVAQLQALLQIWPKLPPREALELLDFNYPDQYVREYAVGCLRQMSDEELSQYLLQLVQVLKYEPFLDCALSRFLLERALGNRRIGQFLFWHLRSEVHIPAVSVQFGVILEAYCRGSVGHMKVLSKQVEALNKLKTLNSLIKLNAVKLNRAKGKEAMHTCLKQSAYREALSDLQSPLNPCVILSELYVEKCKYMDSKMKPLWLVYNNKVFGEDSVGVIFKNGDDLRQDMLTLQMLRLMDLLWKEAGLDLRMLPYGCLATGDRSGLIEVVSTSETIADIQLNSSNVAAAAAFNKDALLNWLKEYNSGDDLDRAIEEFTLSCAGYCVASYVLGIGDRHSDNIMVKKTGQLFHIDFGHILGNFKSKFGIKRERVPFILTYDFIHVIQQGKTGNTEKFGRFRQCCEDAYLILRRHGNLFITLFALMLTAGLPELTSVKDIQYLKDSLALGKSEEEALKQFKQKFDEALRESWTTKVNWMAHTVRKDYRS
T5 sequence (P27986 whole entry partner): as the sequence (P27986 whole entry partner) above
T4 sequence (P51955 whole entry): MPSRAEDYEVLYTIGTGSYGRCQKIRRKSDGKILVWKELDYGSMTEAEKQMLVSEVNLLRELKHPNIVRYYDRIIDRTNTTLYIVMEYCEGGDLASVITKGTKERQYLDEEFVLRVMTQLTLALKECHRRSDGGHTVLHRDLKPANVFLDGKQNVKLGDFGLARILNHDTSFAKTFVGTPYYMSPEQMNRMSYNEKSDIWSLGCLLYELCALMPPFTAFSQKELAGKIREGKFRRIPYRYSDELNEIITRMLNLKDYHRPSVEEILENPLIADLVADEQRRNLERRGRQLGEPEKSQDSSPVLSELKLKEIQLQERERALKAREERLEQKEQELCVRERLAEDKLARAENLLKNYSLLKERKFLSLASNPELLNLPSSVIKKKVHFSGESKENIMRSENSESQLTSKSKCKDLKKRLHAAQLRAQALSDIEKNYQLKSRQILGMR
T7 sequence (P48736 whole entry): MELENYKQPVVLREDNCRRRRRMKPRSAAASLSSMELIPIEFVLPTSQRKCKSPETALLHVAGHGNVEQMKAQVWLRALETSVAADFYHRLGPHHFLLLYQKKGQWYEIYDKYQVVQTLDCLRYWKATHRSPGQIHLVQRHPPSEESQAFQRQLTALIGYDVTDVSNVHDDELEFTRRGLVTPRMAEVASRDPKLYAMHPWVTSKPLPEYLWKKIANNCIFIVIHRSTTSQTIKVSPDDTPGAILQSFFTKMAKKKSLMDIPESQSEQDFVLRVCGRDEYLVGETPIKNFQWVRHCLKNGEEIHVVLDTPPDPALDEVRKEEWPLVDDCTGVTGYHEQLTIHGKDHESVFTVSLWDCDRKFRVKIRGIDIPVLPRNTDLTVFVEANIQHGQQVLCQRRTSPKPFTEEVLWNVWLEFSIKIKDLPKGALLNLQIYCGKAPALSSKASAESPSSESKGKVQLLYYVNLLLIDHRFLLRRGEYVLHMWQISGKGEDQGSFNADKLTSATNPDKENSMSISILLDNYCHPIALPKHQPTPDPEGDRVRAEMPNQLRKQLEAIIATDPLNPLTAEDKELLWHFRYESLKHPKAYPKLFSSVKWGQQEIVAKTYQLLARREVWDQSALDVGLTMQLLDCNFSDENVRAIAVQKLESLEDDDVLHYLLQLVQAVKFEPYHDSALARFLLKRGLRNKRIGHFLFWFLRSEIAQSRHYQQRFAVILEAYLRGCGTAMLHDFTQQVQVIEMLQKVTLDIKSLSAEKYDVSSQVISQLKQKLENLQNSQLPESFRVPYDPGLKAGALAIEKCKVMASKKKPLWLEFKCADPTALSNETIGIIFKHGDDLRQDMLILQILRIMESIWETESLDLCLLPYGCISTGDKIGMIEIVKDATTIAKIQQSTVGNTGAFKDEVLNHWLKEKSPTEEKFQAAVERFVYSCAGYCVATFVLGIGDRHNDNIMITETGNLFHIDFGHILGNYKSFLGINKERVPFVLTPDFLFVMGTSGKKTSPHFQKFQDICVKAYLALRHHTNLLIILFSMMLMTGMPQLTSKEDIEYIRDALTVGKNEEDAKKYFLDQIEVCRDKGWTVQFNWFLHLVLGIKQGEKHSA

CC(C)NS(=O)(=O)c1cncc(-c2ccc3nc(NC(=O)NCCN)nn3c2)c1 [CZC31207, 5-(2-(3-(2-aminoethyl)ureido)-[1,2,4]triazolo[1,5-a]pyridin-6-yl)-N-isopropylpyridine-3-sulfonamide]
Competition % PIK4Ca [1]: 39.9%
Competition % DNAPK [2]: 38.2%
Competition % FRAP [3]: −87.1%
Competition % NEK2 [4]: 17%
Competition % PIK3Cb [5]: 94.8%
Competition % PIK3Cd [6]: 91.3%
Competition % PIK3Cg [7]: 91.5%
Competition % PIP5K2C [8]: 75.5%
Competition % BCKDK [9]: −0.1%
Competition % MAP3K1 [10]: 14.1%
Competition % DNAPK [11]: 35.3%
Competition % FRAP [12]: 25.9%
Competition % PIK3Cd [13]: 83.6%
Competition % NEK2 [14]: 40.4%
Competition % PIK3Cb [15]: 85.6%
Competition % PIK3Cg [16]: 80%
Competition % PIP5K2C [17]: 78.3%
Competition % CaMK2g [18]: −3.1%
Competition % PIK4Ca [19]: 28.5%
